Here are results for 3 compounds from patent US11879145B2, “Reagents and methods for replication, transcription, and translation in semi-synthetic organisms” (The Scripps Research Institute, priority 2019, dated 2024).

In series [1] the test system is sfGFP^151(AXC). Put plainly: In vivo translation screen of XTPs/YTPs: total sfGFP fluorescence. Type of series: cell-based, E. coli. The method, then: (§1) In vivo Translation Screen of XTPs/YTPs. An overnight culture of the SSO strain ML2 carrying the pGEX-MbPylRS TetR plasmid was grown in 2×YT supplemented with 50 mM potassium phosphate, […] chloramphenicol and 100 μg/mL carbenicillin (herein referred to in this section as “media”), then diluted back to an OD600 of 0.03 in the same media and grown to an OD600 of 0.4 to 0.6. The culture was then chilled with shaking over ice-water for 15 minutes then pelleted by centrifugation at 3,200×g for 10 min. Cells were then resuspended and washed with ice-cold ddH2O twice then resuspended in ice-cold ddH2O to OD600 of 55-65. The electrocompetent cells (50 μL) and 1 ng of Golden Gate assembled plasmid with the UBP within the sfGFP and tRNAPyl genes (see Golden Gate Assembly of Plasmids) were transferred to a pre-chilled electroporation cuvette (0.2-cm-gap), then electroporated (Gene Pulser II; Bio-Rad) according to manufacturer's recommendations (voltage […], capacitor 2.5 μF, resistor 200Ω), and then immediately diluted with 950 μL of media. An aliquot (40 μL) of the transformation was then diluted five-fold in media supplemented with dCNMOTP (25 μM) and dTPT3TP (10 μM) for a final volume of 200 μL then allowed to recover for 1 h shaking at 37° C. Two-fold dilutions of the recovery were plated onto solid media supplemented with zeocin (50 μg/mL), dCNMOTP (10 μM), dTPT3TP (10 μM), and agar (2% w/v), then grown at 37° C. for 18 h. Single colonies were picked and grown in media (300 μL) supplemented with 50 μg/mL zeocin and provided dCNMOTP (25 μM) and dTPT3TP (10 μM) (herein afterward referred to in this section as “growth media”). The culture was monitored for cell growth (Envision 2103 Multilabel Plate Reader with a 590/20 nm filter) and then collected at an OD600˜1.0. An aliquot (50 μL) was subjected to plasmid isolation using the ZR Plasmid Prep Kit (Zymo Research). Isolated plasmids were then subjected to the streptavidin gel shift assay described below (using primers P3-4 and P5-6, Table S1) to determine UBP retention.
(§2) A colony with excellent UBP retention was then diluted to an OD600˜0.01 in growth media and grown to OD600˜0.4-0.6. This culture was then divided into multiple 300 μL cultures and for the screen of XTP analogs, each was provided with the corresponding XTP (at either 25 μM or 250 μM) or ddH2O for “−XTP” samples, TPT3TP (30 μM), and AzK (10 mM). For the screen of YTP analogs, each 300 μL culture was provided with the corresponding YTP (at either 25 μM or 250 μM) or ddH2O for “−YTP” samples, NaMTP (250 μM), and AzK (10 mM). Samples were shielded from light after addition of AzK to prevent photodegradation. These samples were then grown at 37° C. for 20 min before adding 1 mM IPTG and grown at 37° C. for an additional 1 h to induce T7 RNAP and transcription of tRNAPyl and PylRS. From this point on, cells were monitored for growth and fluorescence. Expression of sfGFP was then induced with anhydrotetracycline (100 ng/mL). After an additional 3 h of growth at 37° C., cells were collected (230 μL for affinity purification of sfGFP), cooled, and then pelleted and stored at −80° C. before protein purification.
An SAR analysis was initiated with NaMTP and the nine XTP analogs. Based on performance in the dXTP screen described above, and to eliminate variable loss at the DNA level as a complicating factor, the unnatural information was encoded with the dCNMO-dTPT3 UBP. Additionally, the E. coli strain ML2, which expresses the nucleoside triphosphate transporter PtNTT2, but has also been genetically engineered for higher fidelity replication of the UBP by deletion of the gene encoding RecA (as is common in cloning strains) and overexpression of DNA Pol II was used. The same plasmid described above in Examples 1A and 1, harboring sfGFP^151(AXC) and tRNA^Pyl(GYT), was used, and to focus the screen to a single unnatural ribonucleotide, the M. mazei Pyl tRNA was transcribed in the presence of 30 μM TPT3TP. […]

The test system of the next series is E. coli strain ML2. Put plainly: Cell growth (OD600) / toxicity of unnatural ribonucleoside triphosphates under ribonucleotide screening conditions. The series is classed as cell-based. As to conditions: for Cell growth / toxicity: YTP at the higher concentration (250 μM); for OD600: after 3 h of protein induction. The method, then:
In vivo Translation Screen of XTPs/YTPs. An overnight culture of the SSO strain ML2 carrying the pGEX-MbPylRS TetR plasmid was grown in 2×YT supplemented with 50 mM potassium phosphate, […] chloramphenicol and 100 μg/mL carbenicillin (herein referred to in this section as “media”), then diluted back to an OD600 of 0.03 in the same media and grown to an OD600 of 0.4 to 0.6. The culture was then chilled with shaking over ice-water for 15 minutes then pelleted by centrifugation at 3,200×g for 10 min. Cells were then resuspended and washed with ice-cold ddH2O twice then resuspended in ice-cold ddH2O to OD600 of 55-65. The electrocompetent cells (50 μL) and 1 ng of Golden Gate assembled plasmid with the UBP within the sfGFP and tRNAPyl genes (see Golden Gate Assembly of Plasmids) were transferred to a pre-chilled electroporation cuvette (0.2-cm-gap), then electroporated (Gene Pulser II; Bio-Rad) according to manufacturer's recommendations (voltage […], capacitor 2.5 μF, resistor 200Ω), and then immediately diluted with 950 μL of media. […] Two-fold dilutions of the recovery were plated onto solid media supplemented with zeocin (50 μg/mL), dCNMOTP (10 μM), dTPT3TP (10 μM), and agar (2% w/v), then grown at 37° C. for 18 h. […] An aliquot (50 μL) was subjected to plasmid isolation using the ZR Plasmid Prep Kit (Zymo Research). Isolated plasmids were then subjected to the streptavidin gel shift assay described below (using primers P3-4 and P5-6, Table S1) to determine UBP retention.
Samples were shielded from light after addition of AzK to prevent photodegradation. These samples were then grown at 37° C. for 20 min before adding 1 mM IPTG and grown at 37° C. for an additional 1 h to induce T7 RNAP and transcription of tRNAPyl and PylRS. From this point on, cells were monitored for growth and fluorescence. Expression of sfGFP was then induced with anhydrotetracycline (100 ng/mL).
Examining the Toxicity of Ribonucleoside Triphosphates. An overnight culture of ML2 was grown in 2×YT media supplemented with 50 mM potassium phosphate and chloramphenicol (5 μg/mL), referred to throughout this section as “media”. This culture was diluted back to an OD600 of 0.01 split into multiple 300 μL cultures, each supplemented with varying concentrations of TPT3TP, TAT1TP, NaMTP, or 5FMTP, along with a no triphosphate control. The cultures were then incubated at 37° C. with shaking at 230 rpm. […] OD600 was then plotted as a function of time for each nucleotide at each concentration to visualize differences in growth rates.

Series [2] concerns sfGFP^151(AXC). Put plainly: In vivo translation screen of XTPs/YTPs: protein shift (AzK incorporation) by DBCO-TAMRA western blot. The series is classed as cell-based, E. coli. The settings on record: XTP 250 μM; TPT3TP 30 μM; dCNMO-dTPT3 UBP; strain ML2. The method, then: as §1, §2
Affinity Purification of sfGFP. Cell pellets collected from translation experiments were resuspended in BugBuster (100 μL 1×, EMD Millipore) and shaken at room temperature for 15 min. […]

Entries after “also recorded” stand apart in the source; their conditions may differ.

For the compound `O=P(O)(O)OP(=O)(O)OP(=O)(O)OC[C@H]1O[C@@H](n2ccc3ccsc3c2=S)[C@H](O)[C@@H]1O` [TPT3TP], in the series with sfGFP^151(AXC) [1] (YTP 25 μM), the “Greater fluorescence than 5SICSTP” value is listed as 6 fold, the “Greater fluorescence than FSICSTP” value was 5 fold, the “Greater fluorescence than SICSTP” value is 2 fold and the Protein production entry is listed as “significant quantities of pure protein”. The “sfGFP fluorescence relative to control without YTP” value in the series on sfGFP^151(AXC) [1] (YTP 250 μM, NaMTP 250 μM) is given as “little fluorescence”. Moreover, the Toxicity result with E. coli strain ML2 (YTP at lower concentrations (25 μM)) is “somewhat less toxic”. In addition, the “Cell growth / toxicity” value in the series on E. coli strain ML2 is “significantly reduced cell growth; also recorded: at least slightly toxic”.
Regarding `O=P(O)(O)OP(=O)(O)OP(=O)(O)OC[C@H]1O[C@@H](n2ccc3ccccc3c2=S)[C@H](O)[C@@H]1O` [SICSTP], the OD600 was found to be 1.25 ± 0.10 in the series on E. coli strain ML2 (YTP 25 μM) and 0.90 ± 0.04 in the series on E. coli strain ML2 (YTP 250 μM). For the same compound, the “Cell growth / toxicity” value in the series on E. coli strain ML2 was “at least slightly toxic”.
On to `COc1ccc(F)cc1[C@@H]1O[C@H](COP(=O)(O)OP(=O)(O)OP(=O)(O)O)[C@@H](O)[C@H]1O` [Compound 5F2OMeTP], for which, in the series on sfGFP^151(AXC) [2], the “sfGFP protein gel shift (ncAA incorporation)” value was 94%. In addition, the OD600 in the series on E. coli strain ML2 (XTP 25 μM) was found to be 1.14 ± 0.05; in the series with E. coli strain ML2 (XTP 250 μM), 1.16 ± 0.07.
